The source of these data is patent US11219650B2, “Agent for preventing or treating small intestinal injury induced by specific NSAID and PPI” (priority 2018, dated 2022).

In data set [1] the test system is small intestinal injury. The note with it: Non-Patent Literature 1 (Wallace et al., Gastroenterology 2011); cited from earlier work.
The test system of data set [2] is small intestinal injury. The note with it: rat, in vivo.
Procedure: (§1) The animals were allowed to free access to a solid diet (CE-2, CLEA Japan, Inc.) and tap water.
(§2) At the start of the experiments, the blood was collected from the tail vein with hematocrit capillary tubes (Thermo Fisher Scientific K.K.) to measure hematocrit values. […] After grouping, the body weight of the animals was measured for nine days, and one of the PPIs (10 mg/kg) was intraperitoneally administered twice a day. For the normal group and the NSAID alone administration groups, vehicle was administered instead of the PPIs. From day 6 of PPI administration, one of the NSAIDs (10 mg/kg) was administered by oral gavage twice a day. For the normal group, vehicle was administered instead of the NSAIDs. For the bifidobacteria administration groups, one strain of the bacteria (1×10^9 cfu (colony forming unit)/animal) was further administered by oral gavage once a day. For the other groups, physiological saline was administered instead of the bifidobacteria. On the final day of the experiments, the hematocrit values were measured again, and the difference between the start and the end of the experiments was calculated and expressed as the rate of change of the hematocrit values. In aspirin administration experiments, the animals were fed with a high-fructose diet (EPS EKISHIN Co., Ltd) from the starting day of PPI administration.
(§3) Bifidobacteria administration was not performed. […]
Data set [3] deals with small intestinal injury. In words: Comparative Example 1: degree of small intestinal injury induction by sulindac and omeprazole, rate of change of hematocrit values. The note with it: rats; sulindac as NSAID + omeprazole as PPI; no bifidobacteria; FIG. 10.
Procedure: as §1, §2, §3
In data set [4] the test system is small intestinal injury induced by NSAID and PPI. The data set is described as follows: Test 1: inhibitory effects on NSAID and PPI induced small intestinal injury, rate of change of hematocrit values. The note with it: rats, bacteria 1×10^9 cfu/animal oral once a day. The data set is classed as in vivo, Wister male rats. As to the method: Frozen stocks of the following bacterial strains were statically cultured in GAM broth at 37° C. for 24 hours: the Bifidobacterium bifidum G9-1 strain (B. bifidum G9-1) (Accession No. NITE BP-817), the Bifidobacterium longum reference strain JCM (registered trademark) 1217^T (B. longum JCM 1217) (purchased from Japan Collection of Microorganisms (JCM), RIKEN BioResource Research Center), and the Bifidobacterium infantis reference strain JCM 1222T (B. infantis JCM 1222) (purchased from JCM). Each of the bacterial liquid cultures was inoculated into fresh GAM broth at a ratio (by volume) of liquid culture to GAM broth of 1:100, and statically cultured at 37° C. for 24 hours. […]
Small intestinal injury was induced by a combination of (S)-(+)-2-(6-methoxy-2-naphthyl)propionic acid (naproxen, Tokyo Chemical Industry Co., Ltd., dissolved in a 5% NaHCO3 solution; also called NAP) and omeprazole (omz) or by a combination of ibuprofen (Ibu) and omeprazole (omz). […] That is, the effect of B. bifidum on recovery from small intestinal injury induced by ibuprofen and omeprazole when compared with the effect of B. bifidum on recovery from small intestinal injury induced by naproxen and omeprazole was calculated by the following formula, taking the latter effect as 1.

On to `COc1ccc2cc([C@H](C)C(=O)O)ccc2c1` [Naproxen, (S)-(+)-2-(6-methoxy-2-naphthyl)propionic acid], for which the “induction of small intestinal injury by naproxen in combination with omeprazole” value with small intestinal injury [1] was “induce small intestinal injury”.
As to `CC1=C(CC(=O)O)c2cc(F)ccc2/C1=C\c1ccc([S+](C)[O-])cc1` (centres unmarked) [sulindac], the “induction of small intestinal injury by combination of sulindac and omeprazole” value in the data set on small intestinal injury [2] was “does not induce small intestinal injury”. Also, the “reduction of the hematocrit values induced by sulindac in combination with omeprazole” value in the data set on small intestinal injury [3] was “did not induce reduction of the hematocrit values”.
Consider Bifidobacterium longum, for which, in data set [4] (ibuprofen 10 mg/kg oral + lansoprazole 10 mg/kg i.p. twice a day, FIG. 7), the “inhibitory effect on small intestinal injury (hematocrit reduction) induced by ibuprofen and lansoprazole” value is recorded as “higher inhibitory effect”. The “inhibitory effect on small intestinal injury (hematocrit reduction) induced by ibuprofen and omeprazole” value in data set [4] (ibuprofen 10 mg/kg oral + omeprazole 10 mg/kg i.p. twice a day, FIG. 4) was “higher inhibitory effect”.
